The text below walks through data of PubChem BioAssay (NCI).

Some test systems named below: CAKI-1 renal; RXF 393 renal; RPMI-8226 leukemia; NCI-H23 lung; SK-OV-3 ovarian; PC-3 prostate; SF-268 CNS; SK-MEL-2 melanoma; EKVX NSCLC; NCI-H226 lung.
What all share (assay): inhibition of tumour cell growth, NCI panel, 48 h

Several values for one entry are separate records, joined by “and”; a condition that tells them apart may be missing. Identical values can stand only once.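 Growth conditions: 96-well plates. Treatment: test compound, 48 hours, 5 concentrations. Analysis: linear interpolation between bracketing concentrations; unreached endpoints set to highest concentration. Abbreviation: GI50, concentration required for 50% inhibition of growth. TGI: total growth inhibition.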

Regarding `C[C@@]12CC=C3c4nc(Nc5cccc(O)c5)sc4CC[C@]3(C)[C@H]1CC[C@]1(C)C(=O)CC[C@@H]21`, the GI50 with CAKI-1 renal is 1.7 µM; with RXF 393 renal it was 0.666 µM; with RPMI-8226 leukemia it was 0.669 µM; with NCI-H23 lung, 2.74 µM; in the assay on SK-OV-3 ovarian it was 4.81 µM; in the assay with PC-3 prostate, 1.41 µM. The GI50 is 2.1 µM in the assay on SF-268 CNS, 2.86 µM with SK-MEL-2 melanoma, 5.93 µM with EKVX NSCLC and 2.86 µM with NCI-H226 lung. The TGI with CAKI-1 renal is 3.28 µM; with RXF 393 renal, 2.35 µM; with RPMI-8226 leukemia, 4.52 µM; with NCI-H23 lung, 12.3 µM; with SK-OV-3 ovarian, 28 µM; with PC-3 prostate it was 7.02 µM. The TGI in the assay on SF-268 CNS was determined as 7.12 µM; in the assay with SK-MEL-2 melanoma, 9.99 µM; in the assay with EKVX NSCLC it was 83.3 µM; in the assay on NCI-H226 lung it was 8.94 µM.

With `COc1cc(-c2ccc3c(c2)NC(=O)/C3=C\c2ccc[nH]2)ccc1O`, the GI50 in the assay on CAKI-1 renal was 0.255 µM; in the assay with RXF 393 renal, 0.0234 µM; with RPMI-8226 leukemia it was 0.0228 µM; with NCI-H23 lung, 0.0662 µM; with SK-OV-3 ovarian it was 0.0341 µM; with PC-3 prostate, 0.0228 µM. The GI50 was 0.377 µM with SF-268 CNS, 0.034 µM with SK-MEL-2 melanoma, 0.144 µM with EKVX NSCLC and 2.06 µM in the assay with NCI-H226 lung. Besides, the TGI was greater than 12.9 µM in the assay with CAKI-1 renal; 1.66 µM in the assay with RXF 393 renal; greater than 16.2 µM with RPMI-8226 leukemia; greater than 50 µM with NCI-H23 lung; greater than 50 µM with SK-OV-3 ovarian; greater than 50 µM with PC-3 prostate. For the same molecule, the TGI in the assay with SF-268 CNS, in the assay with SK-MEL-2 melanoma, in the assay on EKVX NSCLC and with NCI-H226 lung was greater than 50 µM each time.

Regarding `CCOC(=O)[C@@H](N)CCC(=O)N[C@@H](CSCc1ccccc1)C(=O)N[C@@H](C(=O)OCC)c1ccccc1`, the GI50 was 22.2 µM in the assay with CAKI-1 renal; 14.1 µM in the assay with RXF 393 renal; 17.8 µM with RPMI-8226 leukemia; 18.8 µM in the assay with NCI-H23 lung; 16.6 µM in the assay on SK-OV-3 ovarian; 16.5 µM in the assay with PC-3 prostate. Also, the GI50 in the assay with SF-268 CNS is 16.6 µM; in the assay on SK-MEL-2 melanoma, 16.7 µM; in the assay on EKVX NSCLC, 25.2 µM; with NCI-H226 lung, 16.4 µM. Also, the TGI in the assay with CAKI-1 renal was greater than 53 µM; with RXF 393 renal it was 27.5 µM; with RPMI-8226 leukemia, 45.1 µM; in the assay on NCI-H23 lung, 40.9 µM; in the assay on SK-OV-3 ovarian, 31.5 µM; with PC-3 prostate, 37.3 µM. Moreover, the TGI with SF-268 CNS is 31.3 µM; with SK-MEL-2 melanoma, 32.7 µM; in the assay with EKVX NSCLC, greater than 73.3 µM; in the assay on NCI-H226 lung, 37.5 µM.

`N#CC(NNC(=O)Cc1ccccc1)c1c(O)ccc2ccccc12` (centres undefined): the TGI was 25.8 µM in the assay with CAKI-1 renal; 41.9 µM with RXF 393 renal; greater than 60.1 µM in the assay with RPMI-8226 leukemia; 37.8 µM with NCI-H23 lung; 31.3 µM in the assay on SK-OV-3 ovarian; greater than 62.9 µM in the assay with PC-3 prostate. The TGI worked out at 54.5 µM in the assay on SF-268 CNS, 26.9 µM with SK-MEL-2 melanoma, 65.6 µM in the assay on EKVX NSCLC and 47.3 µM in the assay on NCI-H226 lung.

As for `NP(=O)(Oc1c2occc2cc2ccc(=O)oc12)N(CCCl)CCCl` (centres undefined), the TGI in the assay with CAKI-1 renal, in the assay on RXF 393 renal, with RPMI-8226 leukemia, in the assay with NCI-H23 lung, in the assay with PC-3 prostate and in the assay with SF-268 CNS was greater than 100 µM throughout. Also, the TGI in the assay with SK-MEL-2 melanoma, with EKVX NSCLC and with NCI-H226 lung was greater than 100 µM in each case.

Regarding `COc1cc2c(c(OC)c1OC)-c1ccc(OC)c(=O)cc1[C@@H](NC(=O)c1ccccc1)CC2`, the GI50 in the assay with CAKI-1 renal is 0.029 µM; in the assay with RXF 393 renal, less than 0.003 µM; with SK-OV-3 ovarian, less than 0.003 µM; with PC-3 prostate, less than 0.003 µM; with SK-MEL-2 melanoma, less than 0.003 µM; in the assay with EKVX NSCLC, greater than 30 µM. Besides, the TGI in the assay with CAKI-1 renal was 30 µM and 61.2 µM; in the assay on RXF 393 renal, 8.22 µM and 3.18 µM; in the assay with RPMI-8226 leukemia, greater than 80.7 µM; with NCI-H23 lung, 2.32 µM; in the assay with PC-3 prostate it was 30 µM and > 56.5 µM; with SF-268 CNS, 33.1 µM. The TGI in the assay on EKVX NSCLC was greater than 100 µM; in the assay with NCI-H226 lung it was 1.89 µM.

`N#C/C(=C1C=C(Br)/C(=N\O)C=C\1Cl)c1cccc2ccccc12`: the TGI stood at 23.4 µM in the assay with CAKI-1 renal; 4.44 µM in the assay on RXF 393 renal; 32.4 µM in the assay with RPMI-8226 leukemia; 36.3 µM with NCI-H23 lung; 20.3 µM with SK-OV-3 ovarian; 10.9 µM with PC-3 prostate. Moreover, the TGI stood at 29.3 µM in the assay on SF-268 CNS, 8.9 µM in the assay with SK-MEL-2 melanoma, 23.3 µM with EKVX NSCLC and 6.54 µM in the assay on NCI-H226 lung.

With `COc1ccc(/C=C/c2ccnc3ccccc23)c(OC)c1`, the TGI in the assay on CAKI-1 renal, in the assay with RXF 393 renal, with RPMI-8226 leukemia, in the assay on SK-OV-3 ovarian, in the assay on PC-3 prostate and in the assay on SF-268 CNS was greater than 10 µM in each case. For the same molecule, the TGI in the assay with SK-MEL-2 melanoma, with EKVX NSCLC and with NCI-H226 lung was greater than 10 µM in each case.

In the case of `CC(=O)CSCc1ccccn1`, the TGI in the assay on RXF 393 renal is greater than 100 µM; with RPMI-8226 leukemia it was 36.8 µM; in the assay on NCI-H23 lung, greater than 100 µM; with SK-OV-3 ovarian it was greater than 100 µM; in the assay with PC-3 prostate, greater than 100 µM; in the assay with SF-268 CNS, greater than 100 µM. Also, the TGI in the assay on SK-MEL-2 melanoma is 71.4 µM; in the assay on EKVX NSCLC, greater than 100 µM; in the assay with NCI-H226 lung, 43.7 µM.

Take `Clc1nc(Cl)c(Cl)c(-c2ccccc2)n1`: the TGI with RXF 393 renal is 26.6 µM; in the assay on RPMI-8226 leukemia, greater than 100 µM; with NCI-H23 lung it was 35 µM; in the assay with SK-OV-3 ovarian, 25.8 µM; with PC-3 prostate, 39.3 µM; with SF-268 CNS, 61.6 µM. Moreover, the TGI amounted to 51.7 µM with SK-MEL-2 melanoma, 30.7 µM in the assay on EKVX NSCLC and 65.4 µM with NCI-H226 lung.

`NCC1Nc2ccccc2[C@@H](O)C1O` (some centres undefined): the TGI in the assay with CAKI-1 renal, with RXF 393 renal, with RPMI-8226 leukemia, in the assay on NCI-H23 lung, in the assay on SK-OV-3 ovarian and in the assay with PC-3 prostate was greater than 100 µM in each case. Moreover, the TGI in the assay with SF-268 CNS, in the assay with SK-MEL-2 melanoma, in the assay on EKVX NSCLC and in the assay with NCI-H226 lung was greater than 100 µM each time.

`COc1cc(/C=C/c2cc(/C=C/c3ccc(O)c(OC)c3)n(C(=O)Nc3ccc(F)c(Cl)c3)n2)ccc1O`: the GI50 in the assay on CAKI-1 renal was 0.35 µM; in the assay with RXF 393 renal, 0.249 µM; in the assay with RPMI-8226 leukemia, 0.365 µM; with NCI-H23 lung, 0.147 µM; with SK-OV-3 ovarian, 0.324 µM; in the assay with PC-3 prostate, 0.365 µM. In addition, the GI50 with EKVX NSCLC was 1.22 µM; in the assay with NCI-H226 lung, 0.491 µM. Also, the TGI was determined as 4.92 µM with CAKI-1 renal; 0.828 µM with RXF 393 renal; 1.73 µM in the assay with RPMI-8226 leukemia; 1.46 µM with NCI-H23 lung; 1.43 µM with SK-OV-3 ovarian; 6.58 µM in the assay on PC-3 prostate. The TGI was 6.98 µM in the assay with EKVX NSCLC and 2.3 µM in the assay on NCI-H226 lung.

As for `COc1ccc(Nc2c3ccccc3nc3occc23)cc1`, the GI50 with CAKI-1 renal was 2.93 µM; in the assay on RXF 393 renal, 1.85 µM; in the assay with RPMI-8226 leukemia, 1.12 µM; with NCI-H23 lung, 3.72 µM; in the assay with SK-OV-3 ovarian it was 2.21 µM; in the assay with PC-3 prostate, 3.25 µM. Moreover, the GI50 was 3.68 µM in the assay on SF-268 CNS, 18.1 µM with EKVX NSCLC and 31.9 µM in the assay on NCI-H226 lung. Besides, the TGI is greater than 42 µM in the assay with CAKI-1 renal; 17.7 µM in the assay with RXF 393 renal; 12.4 µM in the assay with RPMI-8226 leukemia; greater than 27.6 µM with NCI-H23 lung; 14.9 µM in the assay with SK-OV-3 ovarian; greater than 39.5 µM with PC-3 prostate. Further, the TGI was 34 µM in the assay with SF-268 CNS, greater than 52.7 µM with EKVX NSCLC and greater than 100 µM with NCI-H226 lung.

`O=S(=O)(N=S(c1ccccc1)c1ccccc1)c1ccccc1`: the TGI in the assay on RXF 393 renal, in the assay on RPMI-8226 leukemia, in the assay with NCI-H23 lung, in the assay with PC-3 prostate, in the assay on SF-268 CNS and in the assay with EKVX NSCLC was greater than 100 µM each time. Moreover, the TGI in the assay with NCI-H226 lung was greater than 100 µM.

On to `Cc1cccc(N2CCN(C(=S)c3ccc4c(c3)OCO4)CC2)c1`, for which the GI50 in the assay on CAKI-1 renal is 0.485 µM; in the assay on RXF 393 renal, 1.14 µM; in the assay on RPMI-8226 leukemia, 8.01 µM; with NCI-H23 lung it was 7.07 µM; in the assay with SK-OV-3 ovarian, 2.19 µM; in the assay with PC-3 prostate, 4.14 µM. Besides, the values for the GI50 in the assay with SF-268 CNS, in the assay with EKVX NSCLC and with NCI-H226 lung were 3.85 µM, 7.12 µM and 41 µM, respectively. For the same molecule, the TGI in the assay on CAKI-1 renal is greater than 100 µM; in the assay with RXF 393 renal, 5.82 µM; in the assay on RPMI-8226 leukemia, greater than 100 µM; in the assay with NCI-H23 lung, greater than 100 µM; in the assay on SK-OV-3 ovarian it was 83.3 µM; in the assay on PC-3 prostate it was greater than 100 µM. Besides, the TGI in the assay with SF-268 CNS, in the assay on EKVX NSCLC and in the assay with NCI-H226 lung was greater than 100 µM in each case.
